Where “and” joins values, the source holds several entries; their conditions need not be identical. Identical values can stand only once.
Key:
naive mice = assay: Male fertility test; assay type: in vivo, mouse; parameters: Male fertility test, individual values (Fig 6E) / male fertility test, BB value (Fig S8C) / male fertility test, AB value (Fig S8C): unit not given here
Excerpt: Mice were 10 weeks old at the beginning of the experiment and acclimatized to the animal facility for two weeks after arrival. Male mice were randomized into two groups (n = 8/group) and weighed and injected s.c. once daily (between 3 pm and 4 pm) for 14 days with sterile PBS or 10 μmol/kg mPD5 (diluted in sterile PBS and pH adjusted to 7.4). After 14 days of dosing, the males were paired with female mice in fresh cages, and the number of pubs counted for 35 days (males were removed from the breeding cages after 14 days). Following the 14 days mating period, males were sacrificed by cervical dislocation caudae epidymidis were removed and weighed. Caudae epidymidis were cut into smaller pieces in 2 mL PBS (37 °C) and incubated (37 °C, 5% CO2) for 15 min. Following incubation, the mix was swirled gently, and 0.5 mL of the liquid was transferred to room tempered PBS to achieve a final volume of 1 mL.
Subsequently, sperm count was determined by transferring 50 µL of the sample to a hemocytometer, and each sample was determined in duplicate by an experimenter blinded to drug treatment. Following criteria were assessed: mobility (forward and circular), local tail mobility and total number. Females were weighed on a regular basis from removal of the males […]
Unless otherwise stated, all data were analysed using GraphPad Prism 9.4.1. and presented as mean +-SEM with the significance level set to p < 0.05. For locomotion and elevated plus maze, Ethovision XT 13 (Noldus) was used to track the distance travelled by each animal. For within group analysis (i.e., von Frey experiments), two-way ANOVA followed by Dunnett’s post hoc test was used. For between group analysis of multiple time points (i.e., locomotion experiments), two-way ANOVA was used without post hoc test due to lack of treatment significance in the ANOVA test. For the limb use experiment, data pre versus post treatment was analysed with a Kruskal Wallis test due to the non-parametric nature of the data. When analysing histograms of three groups or more (i.e., marble burying and elevated plus maze),

[1] = test system: mice, spared nerve injury (SNI) model; assay: SNI model 18 weeks after surgery, von Frey, sustained s.c. administration; assay type: in vivo, mouse; parameters: von Frey threshold, Fig 7C, individual mice: unit not given here; conditions: for duration of effect on mechanical hypersensitivity: SNI 18 weeks after surgery
Experimental: Repeated and sustained administration of mPD5 in the SNI model. […]
For the first experiment with sustained administration of mPD5 (Figure 7C), the mice underwent a baseline von Frey reading as described in the “Mechanically-evoked pain (von Frey).”-section and SNI surgery as described in “Induction of neuropathic pain (SNI model).”-section. Approximately 18 weeks (125 days) after SNI surgery, hyperalgesia was confirmed with von Frey. On the same day, mice were injected s.c. with 10 μmol/kg mPD5 and evoked pain was tested again at 1 hour after injection. Then, mice were injected s.c. with either 2+2+2 μmol/kg mPD5 (group A) or PBS (group B) once an hour for 3 hours. At 4,5 hours after the 10 μmol/kg mPD5 injection paw withdrawal threshold was measured again followed by a s.c. injection of 2 μmol/kg mPD5 in all animals. The PWT was measured again at 6 hours +7 hours + 8 hours + 9 hours + 10 hours + 11 hours + 22 hours + 23 hours + 25 hours + 27 hours + 49 hours + 121 hours after the initial 10 μmol/kg mPD5 injection performed on day 125. […]

[2] = males s.c. 10 μmol/kg, once daily for 14 days
[3] = s.c. 10 μmol/kg, once daily for 14 days

CCCCCCCCCCCCCC(=O)N(CCOCCOCCC(=O)N[C@@H](Cc1c[nH]cn1)C(=O)N[C@@H](Cc1c[nH]c2ccccc12)C(=O)N[C@@H](CC(C)C)C(=O)N[C@@H](CCCCN)C(=O)N[C@H](C(=O)O)C(C)C)CCOCCOCCC(=O)N[C@@H](Cc1c[nH]cn1)C(=O)N[C@@H](Cc1c[nH]c2ccccc12)C(=O)N[C@@H](CC(C)C)C(=O)N[C@@H](CCCCN)C(=O)N[C@H](C(=O)O)C(C)C [mPD5, myristoyl-NPEG4-(HWLKV)2]
male fertility test, AB value (Fig S8C) (naive mice; AB, individual animals): 28 (3×) and 27 and 26 and 28.5 and 29 | male fertility test, BB value (Fig S8C) (naive mice; BB, individual animals): 41.5 and 43 and 45 (2×) and 41 (2×) and 44 | male fertility test, cumulative value by day (Fig S8B) (naive mice; Day 19): 0 | male fertility test, cumulative value by day (Fig S8B) (naive mice; Day 20): 17 | male fertility test, cumulative value by day (Fig S8B) (naive mice; Day 21): 27 | male fertility test, cumulative value by day (Fig S8B) (naive mice; Day 22): 56 | male fertility test, cumulative value by day (Fig S8B) (naive mice; Day 23): 64 | male fertility test, cumulative value by day (Fig S8B) (naive mice; Day 24): 64 | male fertility test, cumulative value by day (Fig S8B) (naive mice; Day 25): 64 | male fertility test, cumulative value by day (Fig S8B) (naive mice; Day 26): 64 | male fertility test, cumulative value by day (Fig S8B) (naive mice; Day 27): 64 | male fertility test, cumulative value by day (Fig S8B) (naive mice; Day 28): 64 | male fertility test, cumulative value by day (Fig S8B) (naive mice; Day29): 64 | male fertility test, cumulative value by day (Fig S8B) (naive mice; Day 30): 64 | male fertility test, cumulative value by day (Fig S8B) (naive mice; Day 31): 64 | male fertility test, cumulative value by day (Fig S8B) (naive mice; Day 32): 64 | male fertility test, cumulative value by day (Fig S8B) (naive mice; Day 33): 64 | male fertility test, cumulative value by day (Fig S8B) (naive mice; Day 34): 64 | male fertility test, cumulative value by day (Fig S8B) (naive mice; Day 35): 64 | body weight drop per pup following birth (naive mice; [2]): the same for both groups | number of pups per litter vs vehicle (naive mice; [2]): same between groups | weight gain of females mated with treated male mice (naive mice; [2]): significantly higher | Male fertility test, individual values (Fig 6E) (naive mice; naive mice): 8 and 9 and 10 | sperm count of the males vs vehicle (naive mice; [3]): same between groups | sperm count, individual mice (naive mice; [3]): 15062500 and 13125000 and 14250000 and 7750000 and 16000000 and 10750000 | von Frey threshold, contralateral paw, Fig 7C, individual mice ([1]; A-contra, time 9 post første inj og time 4 post sidste inj): 1.4 (3×) and 1 (5×) | von Frey threshold, contralateral paw, Fig 7C, individual mice ([1]; A-contra, time 10 post første inj og time 5 post sidste inj): 1 (4×) and 1.4 (3×) and 0.6 | von Frey threshold, contralateral paw, Fig 7C, individual mice ([1]; A-contra, time 11 post første inj og time 6 post sidste inj): 1.4 (2×) and 2 (2×) and 1 (4×) | von Frey threshold, contralateral paw, Fig 7C, individual mice ([1]; A-contra, time 22 post første inj og time 17 post sidste inj): 1.4 (4×) and 0.6 and 1 (3×) | von Frey threshold, contralateral paw, Fig 7C, individual mice ([1]; A-contra, time 23 post første inj og time 18 post sidste inj): 1.4 (6×) and 0.6 and 1 | von Frey threshold, contralateral paw, Fig 7C, individual mice ([1]; A-contra, time 25 post første inj og time 20 post sidste inj): 1 (7×) and 1.4 | von Frey threshold, contralateral paw, Fig 7C, individual mice ([1]; A-contra, time 27 post første inj og time 22 post sidste inj): 1.4 (3×) and 1 | von Frey threshold, contralateral paw, Fig 7C, individual mice ([1]; B-contra, time 9 post første inj og time 4 post sidste inj): 1 (4×) and 1.4 (3×) and 2 | von Frey threshold, contralateral paw, Fig 7C, individual mice ([1]; B-contra, time 10 post første inj og time 5 post sidste inj): 1.4 (4×) and 2 (2×) and 1 (2×) | von Frey threshold, contralateral paw, Fig 7C, individual mice ([1]; B-contra, time 11 post første inj og time 6 post sidste inj): 1 (2×) and 2 (2×) and 1.4 (4×) | von Frey threshold, contralateral paw, Fig 7C, individual mice ([1]; B-contra, time 22 post første inj og time 17 post sidste inj): 1.4 (3×) and 1 (2×) and 2 (3×) | von Frey threshold, contralateral paw, Fig 7C, individual mice ([1]; B-contra, time 23 post første inj og time 18 post sidste inj): 1 (2×) and 2 (3×) and 1.4 (2×) and 0.6 | von Frey threshold, contralateral paw, Fig 7C, individual mice ([1]; B-contra, time 25 post første inj og time 20 post sidste inj): 1.4 (5×) and 1 and 2 and 0.6 | duration of effect on mechanical hypersensitivity ([1]; 10 + 2 + 2 + 2 + 2 μmol/kg s.c., 1 hour between injections (Group A), from first injection): 25 h | duration of effect on mechanical hypersensitivity ([1]; without consecutive administration (reference, 10 + 0 + 0 + 0 + 2 μmol/kg)): 1 h | von Frey threshold, Fig 7C, individual mice ([1]; group A, time 9 post første inj og time 4 post sidste inj): 2 and 1.4 and 0.6 and 0.4 (2×) and 1 (3×) | von Frey threshold, Fig 7C, individual mice ([1]; group A, time 10 post første inj og time 5 post sidste inj): 1.4 (2×) and 2 and 0.4 (3×) and 0.6 and 1 | von Frey threshold, Fig 7C, individual mice ([1]; group A, time 11 post første inj og time 6 post sidste inj): 1.4 and 1 (3×) and 0.16 and 0.4 and 0.6 (2×) | von Frey threshold, Fig 7C, individual mice ([1]; group A, time 22 post første inj og time 17 post sidste inj): 0.6 (2×) and 1 (2×) and 0.16 (2×) and 0.4 and 1.4 | von Frey threshold, Fig 7C, individual mice ([1]; group A, time 23 post første inj og time 18 post sidste inj): 1.4 and 0.6 (2×) and 0.16 and 0.07 (2×) and 1 and 0.4 | von Frey threshold, Fig 7C, individual mice ([1]; group A, time 25 post første inj og time 20 post sidste inj): 0.16 (2×) and 2 and 0.6 (3×) and 0.4 and 1.4 | von Frey threshold, Fig 7C, individual mice ([1]; group A, time 27 post første inj og time 22 post sidste inj): 0.4 | von Frey threshold, Fig 7C, individual mice ([1]; group B, time 9 post første inj og time 4 post sidste inj): 1 and 0.4 (3×) and 0.07 (2×) and 0.6 and 0.16 | von Frey threshold, Fig 7C, individual mice ([1]; group B, time 10 post første inj og time 5 post sidste inj): 0.4 (3×) and 0.16 (2×) and 0.07 (3×) | von Frey threshold, Fig 7C, individual mice ([1]; group B, time 11 post første inj og time 6 post sidste inj): 0.4 (2×) and 0.16 (3×) and 0.07 (3×) | von Frey threshold, Fig 7C, individual mice ([1]; group B, time 22 post første inj og time 17 post sidste inj): 0.16 (5×) and 0.07 (3×) | von Frey threshold, Fig 7C, individual mice ([1]; group B, time 23 post første inj og time 18 post sidste inj): 0.16 (3×) and 0.4 (2×) and 0.07 (3×) | von Frey threshold, Fig 7C, individual mice ([1]; group B, time 25 post første inj og time 20 post sidste inj): 0.6 and 0.16 (4×) and 0.4 and 0.07 (2×) | von Frey threshold, Fig 7C, individual mice ([1]; group B, time 27 post første inj og time 22 post sidste inj): 0.6 and 0.07 and 0.16
